Several values for one entry are separate records, joined by “and”; a condition that tells them apart may be missing. Identical values can stand only once.
Tests used:
[1] = system: corn (Kandy Korn, extra sweet) plants; experiment: Reduction of plant wilting senescence, foliar spray on corn seedlings; type: in vivo; conditions: foliar spray of 1 mM (0.023% wt) in water at day 18, observed at day 25, n = 12, untreated 65%
Experimental: Seeds of corn (Kandy Korn, extra sweet) are planted in 2-inch pots. Seedlings are grown in 2-inch pots under 16-hour day/8-hour night greenhouse conditions. Plants are placed outdoors and receive 5-6 hours of natural, direct light 4-6 days per week. At day 18, seedlings receive one of two treatments: T1: untreated plants (n=11) and T2: treated, plants with foliar spray of 1 mM (0.023% wt) of methyl dihydrojasmonate (MDJ) in water. Plants are sprayed until the point of drip. (n=12). At day 25, plants are observed and senescence is recorded (percentage of wilting plants).

[2] = system: seeds of the corn varietal Kandy Korn; experiment: Reduction of retarded seed germination rate senescence, seed soak (germination rate and radicle length); type: in vivo
Experimental: Non-germinated seeds of the corn varietal Kandy Korn are soaked in one of two treatment solutions: T1: untreated, only water and T2: treated, 1.5 mM (0.034% wt) of methyl dihydrojasmonate (MDJ) in water for 24 hours in 50 mL conical vessels. During the soak event, the seeds spend 12 hours in typical lighting conditions and 12 hours in darkness. Following seed treatment, the treatment solutions are drained from their vessels and a selection of seeds are taken from each vessel for planting. Six two-inch pots are planted for each treatment group, with three seeds per pot, for a total of 18 seeds planted per treatment. The unplanted seeds are allowed to remain in their original vessels in lighted conditions. In addition to determining the germination rate, the radicle lengths of the germinated seeds are measured.

CCCCCC1C(=O)CCC1CC(=O)OC (stereo not shown) [MDJ, methyl dihydrojasmonate]
% of plants with senescing plant wilting [1]: 25%
Germination Rate (percent of seeds that germinated) ([2]; corn seeds soaked 24 hours in 1.5 mM (0.034% wt) in water, n = 10, untreated (only water) 50%): 100%
Radicle length measurements of unplanted germinated seeds (individual seeds) ([2]; corn seeds soaked 24 hours in 1.5 mM in water, one value per seed, untreated 1-3 mm, listed as Methyl Dihydrojasmonate (MDJ)): 5 mm (3×) and 6 mm (2×) and 4 mm (4×) and 3 mm
average radicle length compared with untreated (only water) ([2]; corn seeds soaked in 1.5 mM, FIG. 2): significantly longer
